{"source": "patent US20250025500A1", "about": "“PHOSPHATASE INHIBITORS AS NK CELLS MODULATORS FOR THE TREATMENT OF CANCER” (Kanyr Pharma Inc., priority 2021, published 2025)", "key": {"[1]": {"tested_on": "PTPN1 and PTPN2 catalytic domain", "conditions": "Montalibet J, et al., J Biol Chem 2006; cited from earlier work"}, "NK-92 cells [2]": {"tested_on": "NK-92 cells", "assay": "qRT-PCR of lytic granule and IFNG mRNA in NK-92", "assay_type": "cell-based, Human", "conditions": "steady state", "procedure": "Total RNA was isolated with Qiagen™ RNeasy® Mini Kit™ without DNase I on column digestion, according to the manufactures protocol. Purified total RNA was resuspended in Dnase free, Rnase free, Protease free sterile water and quantified with NanoDrop™. A260/280 was above 2.0 (data not shown). RNA integrity was checked by gel electrophoresis. 500 ng of RNA was reverse transcribed into cDNA using the SuperScript™ III Reverse Transcriptase Kit™ (Thermo Fisher Scientific™), according to the manufacturer's protocol with random primer and Oligo(dT) 20 primer. Synthesized cDNA was treated with RNaseH. qRT-PCR was performed with BioRad™ CFX96 Real Time PCR Detection™ system using FastStart Essential DNA Green Master™ according to the manufacturer's instructions. TBP and B2M was used as housekeeping genes. Delta delta Cq method was used for analyzing relative expression of gene of interests with normalization to housekeeping genes."}, "[3]": {"tested_on": "JAK/STAT signaling in NK-92 cells", "assay": "JAK/STAT signaling Western blot and IL-2 stimulation assay in NK-92", "assay_type": "cell-based, Human", "procedure": "Total cell lysate was prepared with modified RIPA buffer (1M Tris-HCl (pH 7.5), 5M NaCl, 0.25% sodium deoxycholate, 10% NP-40 and 10 mM sodium fluoride) supplemented with ethylenediaminetetraacetic acid (EDTA)-free protease inhibitor (Roche™) and 2 mM sodium orthovanadate (Sigma-Aldrich™). Protein levels were quantified by bicinchoninic acid (BCA) assay. Protein lysate was separated by 10% SDS-PAGE and Western analysis was performed using primary antibodies listed in the tables below followed with horseradish peroxidase (HRP, 1:10,000, Jackson ImmunoResearch™) conjugated secondary antibodies.\nFor cytokine stimulation assay, NK-92 cells were pre-treated with L598 (30 μM) or vehicle control for three days. Before IL-2 stimulation, NK-92 cells were washed once with serum depleted cell media (no IL-2) and were starved for six hours in presence of L598 or vehicle control. After starvation, NK-92 cells were stimulated with IL-2 across a gradient concentration ranging from 0 to 90 IU/mL for 15 mins at 37° C. After incubation, cells were directly lysed with 2× concentrated TNE buffer and then boiled in 1× Laemmli Buffer to prepare cell lysates. Two independent experiments were performed."}, "NK-92 cells [4]": {"tested_on": "NK-92 cells", "assay": "IFN-γ ELISA of NK-92 supernatants", "assay_type": "cell-based, Human", "conditions": "30 μM three days, with or without K-562 (E:T 6:1), vs control", "procedure": "Concentration of secreted IFN-γ in supernatants of NK-92 co-cultured with K-562 cells (E:T at 6:1) or no-stimulation control (K-562 cell media) for four hours was analyzed with Human IFN-γ ELISA Kit (R&D, DIF50) according to the manufacture's protocol. Results were normalized against IFN-γ secreted by K-562 alone treated with NK-92 cell media (no cytokine) for four hours."}, "NK-92 cells [5]": {"tested_on": "NK-92 cells", "assay": "NK-92 viability and proliferation under inhibitor treatment", "assay_type": "cell-based, Human", "conditions": "various IL-2 concentration, vs vehicle control"}, "NK-92 cells [6]": {"tested_on": "NK-92 cells", "assay": "Surface receptor expression on NK-92 (flow cytometry)", "assay_type": "cell-based, Human"}, "NK-92 cells [7]": {"tested_on": "NK-92 cells", "assay": "Degranulation assay of NK-92 (CD107a, perforin, granzyme B)", "assay_type": "cell-based, Human", "procedure": "NK-92 cells pre-treated with L598 (30 μM) or vehicle control were stimulated with K-562 tumor target cells [effector: target (E:T) at 1:1] or PMA/lonomycin (1 μg/mL each) or no-stimulation control with K-562 complete media, respectively. Anti-CD107a or LAMP-1 antibody (1:100, PE/Cy7 conjugated, clone H4A3, from BioLegend®) was added to cells at the start of degranulation assay. Golgi stop (containing Monensin, 1 μM) and Golgi plug (containing Brefeldin A, 4 μg/mL) were added to cells one hour after degranulation assay started and were kept until the end of the 6-hour-degranulation assay. Intracellular staining of GrB (1:40, PE conjugated, clone QA18A28, from BioLegend®) and PRF (1:40, FITC conjugated, clone B-D48, from BioLegend®) were performed with the Fixation/Permeabilization Solution Kit (BD® Biosciences) according to the manufacture's protocol. Cells were stained with fixable viability dye (1:2000) for 20 mins on ice and in dark, and blocked with FcBlock (1:20, diluted in 1× Perm/Wash buffer, Human truStain FcX from BioLegend®) for 5 mins at room temperature and in dark before intracellular staining. Cell gating and percentage of population quantification was based on no-stimulation control. For kinetics of degranulation assay, measurements were taken over three hours at 15 mins, 30 mins, 60 mins, 120 mins and 180 mins, with L598 (30 μM, three days) treated group and vehicle control group under the condition of tumor target cell K-562 stimulation (E: T at 1:1) or no stimulation. Intracellular cytolytic granule contents GrA, GrB and PRF were measured as mentioned previously."}, "[8]": {"conditions": "PMA/ionomycin 1 μg/mL each, six hours, vs control"}, "[9]": {"conditions": "three-hours cytolytic assay, K-562 stimulation"}}}
{"substance": "7-bromo-6-phosphono(difluoro-methyl)-3-napthalenonitrile [L598]", "values": [{"measurement": "binding specificity for PTPN1 and PTPN2 over other protein tyrosine phosphatases", "setting": "[1]", "value": "binds specifically to their catalytic domain but no other protein tyrosine phosphatases"}, {"measurement": "mRNA expression of perforin, granzyme A, granzyme B and granzyme K", "setting": "NK-92 cells [2]; 30 μM three days", "value": "upregulated"}, {"measurement": "IFN-γ mRNA", "setting": "NK-92 cells [2]; 30 μM", "value": "upregulation"}, {"measurement": "sensitivity to low dosage short-term IL-2 stimulation (phospho-STAT1, 3, 4, 5)", "setting": "[3]; 30 μM three days, starved six hours, IL-2 below 100 IU/mL, 15 mins", "value": "more sensitive"}, {"measurement": "minimum IL-2 at which increased STAT5 phosphorylation is detectable", "setting": "[3]; IL-2 stimulation 15 mins after starvation", "value": 30, "unit": "IU/mL"}, {"measurement": "total protein expression of STAT members", "setting": "[3]; IL-2 stimulation assay", "value": "might upregulate"}, {"measurement": "phosphorylation of STAT1, STAT3 and STAT4 under TGF-β1 and IL-2", "setting": "[3]; TGF-β1 and IL-2 stimulation condition", "value": "retained enhanced phosphorylation"}, {"measurement": "basal phosphorylation of STAT1, STAT3 and STAT4", "setting": "[3]; after six-hours serum and cytokine starvation in presence of inhibitor", "value": "increased"}, {"measurement": "phosphorylation of STAT2 and STAT6", "setting": "[3]; regular cell culture, inhibitor titration, three days", "value": "relatively stable"}, {"measurement": "phosphorylation of STAT1, STAT3, STAT4 and STAT5", "setting": "[3]; regular cell culture, inhibitor titration, three days, dosage dependent", "value": "increased phosphorylation"}, {"measurement": "IFN-γ protein secretion", "setting": "NK-92 cells [4]", "value": "significantly more"}, {"measurement": "NK-92 proliferation", "setting": "NK-92 cells [5]", "value": "proliferate slightly faster"}, {"measurement": "IL-2Rα (CD25) expression", "setting": "NK-92 cells [6]; steady state, 10 μM", "value": "upregulated"}, {"measurement": "IL-2Rβ (CD122) expression", "setting": "NK-92 cells [6]; steady state, 10 μM", "value": "remained stable"}, {"measurement": "CD69 and activating receptors NKp30, NKp46, NKG2D on NK-92", "setting": "NK-92 cells [6]; with or without K-562 stimulation", "value": "upregulation"}, {"measurement": "percentage of degranulating NK-92 cells (surface CD107a and intracellular lytic granules)", "setting": "NK-92 cells [7]; 30 μM pre-treatment, K-562 stimulation six hours, vs control", "value": "smaller percentage"}, {"measurement": "dead tumor target K-562 cells in degranulation assay", "setting": "NK-92 cells [7]; K-562 stimulation E:T 1:1, vs control cells", "value": "more tumor target K-562 cells were found dead"}, {"measurement": "degranulated NK-92 cells (CD107a+, Perforin− or Granzyme B−) under PMA and ionomycin", "setting": "NK-92 cells [7]; [8]", "value": "less"}, {"measurement": "degranulating NK-92 cells under PMA and ionomycin", "setting": "NK-92 cells [7]; [8]", "value": "more"}, {"measurement": "percentage of CD107a−, Perforin+ or CD107a−, Granzyme B+ population", "setting": "NK-92 cells [7]; after six-hours K-562 stimulation, vs control", "value": "larger percentage"}, {"measurement": "time from which granzyme B is degranulated more rapidly", "setting": "NK-92 cells [7]; [9]", "value": 60, "unit": "min"}, {"measurement": "time from which perforin is degranulated more rapidly", "setting": "NK-92 cells [7]; [9]", "value": 30, "unit": "min"}]}
